Strand notation (5' to 3'): a small letter for the sugar, then the base; units joined by * are phosphorothioate-linked, units joined directly phosphodiester-linked; [ ] holds rarer units or linkages, { } end groups; capitals alone tell only the bases. d = 2'-deoxy (DNA)
Experiments:
Type in all cases: cell-based
[1] = system: human PBMC; assay: Induction of cytokines and chemokines from human PBMC, comparison with CpG polynucleotides (Milliplex MAP kit); details: for Cytokine, IL-6 / Cytokine, IL-10 / Cytokine, MCP-1 / Cytokine, RANTES (CCL5): human PBMC culture supernatant, 48 h, final concentration 10 μg/mL; for Chemokine (MCP-1, RANTES) inducing activity towards human PBMC (in words) / Interleukin (cytokine) inducing activity towards human PBMC (in words): in comparison to LPS and MCC, Table 14
Protocol: LPS and MCC were included as positive controls as described in Example 7. PBMC were isolated from whole blood using standard Ficoll-Paque Plus (GE Healthcare Life Sciences, Baie d'Urfé, QC, Canada) gradient centrifugation, and placed in tissue culture plates at a concentration of 1×10^6 cells/mL (total volume: 1 mL in RPMI 1640 medium containing 10% heat-inactivated FBS (both from Wisent, St-Bruno, QC, Canada) and 50 μg/mL gentamycin sulfate (Sigma-Aldrich Canada, Oakville, ON, Canada). Non-DNA base-containing polynucleotide SEQ ID NOs: 1, 2, 3, 4, 5, 6, 7, 8 and 9 were added to separate wells to give a final concentration of 10 μg/mL, LPS was added to give a final concentration of 10 μg/mL, and the non-CpG 4010, CpG 2336, CpG 2429 and CpG 7909 polynucleotides, SEQ ID NOs: 31, 33, 35 and 34, respectively, were added to give a final concentration of 10 μg/mL.
The cells were then cultivated for 48 h. Cytokines (interleukins IL-6 and IL-10, chemokines MCP-1 and RANTES) in the culture supernatant were measured using a Milliplex™ MAP kit (Millipore Corporation, Billerica, Mass., USA) on a Bio-Plex 200 system (Bio-Rad Laboratories, Hercules, Calif., USA). MCP-1, also known as monocyte chemotactic protein, is an essential chemokine required for effective monocyte and myeloid dendritic cell activation and trafficking across endothelial and epithelial barriers (see for example Henkel et al, 2004 Ann. Neurol. 55:221-235), and RANTES (Regulated on Activation, Normal T cell Expressed and Secreted, now more commonly known as CCL5) is produced by memory phenotype T cells and is chemotactic for and activates T-cells (see for example Swanson et al, 2002 Immunity 17:605-615).

[2] = molecular target: T1, human TLR9 (Homo sapiens, UniProt Q9NR96); assay: NF-κB activation (secreted alkaline phosphatase reporter) in HEK293 cells expressing human TLR9; details: HEK293/hTLR9 cell line; at 100 ng/mL; 16-20 hours
T1 construct: host or cells: HEK293
T1 sequence (Q9NR96 26-1032): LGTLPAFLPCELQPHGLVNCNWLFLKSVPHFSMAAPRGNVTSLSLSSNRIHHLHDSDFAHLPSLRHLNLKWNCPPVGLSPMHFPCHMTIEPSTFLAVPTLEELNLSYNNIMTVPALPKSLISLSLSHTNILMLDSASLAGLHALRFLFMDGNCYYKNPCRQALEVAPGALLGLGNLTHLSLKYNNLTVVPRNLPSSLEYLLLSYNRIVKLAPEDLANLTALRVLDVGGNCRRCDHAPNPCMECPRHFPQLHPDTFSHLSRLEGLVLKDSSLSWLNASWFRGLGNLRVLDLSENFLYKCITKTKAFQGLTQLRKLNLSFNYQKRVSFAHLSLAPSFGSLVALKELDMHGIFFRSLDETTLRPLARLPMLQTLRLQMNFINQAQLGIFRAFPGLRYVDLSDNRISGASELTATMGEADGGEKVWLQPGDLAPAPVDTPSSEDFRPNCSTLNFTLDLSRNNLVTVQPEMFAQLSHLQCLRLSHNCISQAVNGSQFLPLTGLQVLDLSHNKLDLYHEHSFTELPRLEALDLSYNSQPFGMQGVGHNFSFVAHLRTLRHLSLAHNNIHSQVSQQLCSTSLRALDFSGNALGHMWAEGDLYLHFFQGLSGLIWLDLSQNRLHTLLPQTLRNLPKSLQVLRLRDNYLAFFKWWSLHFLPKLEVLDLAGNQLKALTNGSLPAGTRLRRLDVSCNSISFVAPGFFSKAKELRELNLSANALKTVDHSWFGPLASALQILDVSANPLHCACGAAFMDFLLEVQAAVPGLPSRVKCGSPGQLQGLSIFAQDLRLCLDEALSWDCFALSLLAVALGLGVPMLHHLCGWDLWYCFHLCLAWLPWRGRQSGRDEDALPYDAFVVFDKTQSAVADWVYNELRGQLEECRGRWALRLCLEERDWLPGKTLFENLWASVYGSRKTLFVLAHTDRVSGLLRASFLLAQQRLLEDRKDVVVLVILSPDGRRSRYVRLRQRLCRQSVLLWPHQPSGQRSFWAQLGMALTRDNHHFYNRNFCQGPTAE
Protocol: Toll-like receptors (TLR) are known to interact with a number of natural and synthetic molecules that can function as immune adjuvants. Examples of these molecules are Poly (I:C) polynucleotides, lipopolysaccharide and CpG-containing polynucleotides. The interaction of non-DNA base-containing polynucleotides (SEQ ID NOs: 1-3) to interact with TLR and induce down-stream signaling was tested by assessing NF-κB activation in HEK293 cells expressing human TLR2, 3, 4, 5, 7, 8 and 9. TLR engagement was determined by measurement of secreted alkaline phosphatase, under the control of a reporter inducible by NF-κB. Appropriate positive controls were used for each TLR. […] HEK293 cells containing the appropriate TLR and NF-κB reporting system (InvivoGen, San Diego, Calif., USA) were placed in wells of 96 well plates (25,000-50,000 cells, in a final volume of 200 μL medium designed for the detection of NF-κB induced secreted alkaline phosphatase expression), and incubated with non-DNA base-containing polynucleotides or positive controls for 16-20 hours. TLR activating activity was determined by measurement of absorbance at 650 nm wavelength using a Coulter AD340C absorbance detector. The results shown are expressed as Optical Density (OD).

[3] = system: human PBMC; assay: Induction of cytokines from human PBMC (ELISA cytokine capture assay); details: PBMC of 3 healthy adults, 48 h; increase two-fold that of background control; SEQ ID NOs 1-3 100 μg/mL, CpG 2006 and MCC 1-100 μg/mL, LPS 10 μg/mL
Source text: A number of immune adjuvants are known to be capable of eliciting cytokines from human PBMC cells. Examples of such adjuvants are alum, lipopolysaccharide, monophosphoryl lipid A, CpG-containing polynucleotides and non-CpG-containing ODN's, as well as mycobacterial cell wall-DNA complex (MCC). […] PBMC were isolated from whole blood using standard Ficoll-Paque (GE Healthcare Life Sciences, Baie d'Urfé, QC, Canada) gradient centrifugation, and placed in tissue culture plates at a concentration of 10^6 cells/mL (total volume: 1 mL in RPMI 1640 medium containing 10% heat-inactivated FBS, both from Wisent, St-Bruno, QC, Canada) and 50 μg/mL gentamycin sulfate (Sigma-Aldrich Canada, Oakville, ON, Canada). SEQ ID NOs: 1, 2 or 3 were added to give a final concentration of 100 μg/mL, and the cells were cultivated for 48 h. Cytokines (IL-1β, IL-2, IL-6, IL-10 and IL-12p40) in the supernatant at the end of incubation were determined by ELISA using a cytokine capture assay process (Biosource, Camarillo, Calif.). SEQ ID NO: 32 CpG 2006 ODN (1-100 μg/mL, 5′-[…]-3′, […]), MCC (1-100 μg/mL) and LPS (10 μg/mL) were used as positive controls.

Substance | Cytokine, IL-6 [1] | Cytokine, IL-10 [1] | Cytokine, MCP-1 [1] | Cytokine, RANTES (CCL5) [1] | Chemokine (MCP-1, RANTES) inducing activity towards human PBMC (in words) [1] | Interleukin (cytokine) inducing activity towards human PBMC (in words) [1] | TLR activation, Optical Density at 650 nm, hTLR9, positive control [2] | Number of individuals responding, IL-1β [3] | Number of individuals responding, IL-2 [3] | Number of individuals responding, IL-6 [3] | Number of individuals responding, IL-10 [3] | Number of individuals responding, IL-12p40 [3]
GGGTGGNebNebNeb (DNA GGGTGGNNN; Three 3' nebularines, sugar and linkages not given here, further chemistry not given here) [SEQ ID NO: 5, 5′-OH, 3′-OH non-DNA base-containing polynucleotide] | 845 pg/mL | 13 pg/mL | 3600 pg/mL | 202 pg/mL | strong | strong | – | – | – | – | – | –
5′-GGGGACGACGTCGTCGGGGGG-3′ (DNA dG*dG*dG*dG*dA*dC*dG*dA*dC*dG*dT*dC*dG*dT*dC*dG*dG*dG*dG*dG*dG) [SEQ ID NO: 33, reference compound] | 9 pg/mL | 0 pg/mL | 573 pg/mL | 105 pg/mL | strong MCP-1 inducing activity | did not induce cytokines | – | – | – | – | – | –
GGGTGGIII (DNA GGGTGGNNN; Three 3' inosines, sugar and linkages not given here, further chemistry not given here) [SEQ ID NO: 7, 5′-OH, 3′-OH non-DNA base-containing polynucleotide] | 1 pg/mL | 0 pg/mL | 79 pg/mL | 71 pg/mL | marginal or no | marginal or no | – | – | – | – | – | –
5′-TGCTGCTTTTTGCTGGCTTTTT-3′ (DNA dT*dG*dC*dT*dG*dC*dT*dT*dT*dT*dT*dG*dC*dT*dG*dG*dC*dT*dT*dT*dT*dT) [SEQ ID NO: 31, reference compound] | 43 pg/mL | 0 pg/mL | 343 pg/mL | 275 pg/mL | had chemokine-inducing activity | – | – | – | – | – | – | –
GUG (DNA GNG; Central uracil in DNA, sugar and linkages not given here, further chemistry not given here) [SEQ ID NO: 8, 5′-OH, 3′-OH non-DNA base-containing polynucleotide] | 0 pg/mL | 0 pg/mL | 78 pg/mL | 78 pg/mL | marginal or no | marginal or no | – | – | – | – | – | –
GIG (DNA GNG; Central inosine, sugar and linkages not given here, further chemistry not given here) [SEQ ID NO: 6, 5′-OH, 3′-OH non-DNA base-containing polynucleotide] | 0 pg/mL | 0 pg/mL | 48 pg/mL | 137 pg/mL | marginal or no | marginal or no | – | – | – | – | – | –
5′-TCGTCGTTTTCGGCGGCCGCCG-3′ (DNA dT*dC*dG*dT*dC*dG*dT*dT*dT*dT*dC*dG*dG*dC*dG*dG*dC*dC*dG*dC*dC*dG) [SEQ ID NO: 35, reference compound] | 42 pg/mL | 0 pg/mL | 906 pg/mL | 136 pg/mL | strong MCP-1 inducing activity | did not induce cytokines | – | – | – | – | – | –
GNebG (DNA GNG; Central nebularine, sugar and linkages not given here, further chemistry not given here) [SEQ ID NO: 4, 5′-OH, 3′-OH non-DNA base-containing polynucleotide] | 1960 pg/mL | 28 pg/mL | 7000 pg/mL | 211 pg/mL | strong | strong | – | – | – | – | – | –
GGGTGGUUU (DNA GGGTGGNNN; Three 3' uracils, sugar and linkages not given here, further chemistry not given here) [SEQ ID NO: 9, 5′-OH, 3′-OH non-DNA base-containing polynucleotide] | 133 pg/mL | 1 pg/mL | 914 pg/mL | 117 pg/mL | strong MCP-1 inducing activity | – | – | – | – | – | – | –
5′-TCGTCGTTTTGTCGTTTTGTCGTT-3′ [SEQ ID NO: 32 CpG 2006, reference compound] | – | – | – | – | – | – | 1.904 | 0/3 | 0/3 | 3/3 | 2/3 | 1/3
5′-TCGTCGTTTTGTCGTTTTGTCGTT-3′ [SEQ ID NO: 34, reference compound] | 41 pg/mL | 2 pg/mL | 1270 pg/mL | 187 pg/mL | strong MCP-1 inducing activity | did not induce cytokines | – | – | – | – | – | –
